# Data: ChEMBL document CHEMBL4270669 (J Med Chem, 2018)
# Calls of active or inactive are those of the source. The calls are words filed in the database; no cut-off is given here.
# Assays:
# [1] = Inhibition of TORC2 in human A2058 cells assessed as decrease in PKB/Akt phosphorylation at Ser473 after 1 hr by Western blot analysis; type: cell-based; details: A2058, 1 h
# [2] = Inhibition of TORC1 in human A2058 cells assessed as decrease in S6 phosphorylation at Ser235/236 after 1 hr by Western blot analysis; type: cell-based; details: A2058, 1 h
# [3] = target: T1, Serine/threonine-protein kinase mTOR (Homo sapiens, UniProt P42345)
# [4] = target: T1, Serine/threonine-protein kinase mTOR; remark: listed apart in the source
# Description: Inhibition of human mTOR (1382 to 2549 residues) expressed in mammalian expression system by KINOMEscan assay
# [5] = target: T2, Phosphatidylinositol 4,5-bisphosphate 3-kinase catalytic subunit alpha isoform (Homo sapiens, UniProt P42336)
# T2 sequence (P42336 whole entry, canonical isoform): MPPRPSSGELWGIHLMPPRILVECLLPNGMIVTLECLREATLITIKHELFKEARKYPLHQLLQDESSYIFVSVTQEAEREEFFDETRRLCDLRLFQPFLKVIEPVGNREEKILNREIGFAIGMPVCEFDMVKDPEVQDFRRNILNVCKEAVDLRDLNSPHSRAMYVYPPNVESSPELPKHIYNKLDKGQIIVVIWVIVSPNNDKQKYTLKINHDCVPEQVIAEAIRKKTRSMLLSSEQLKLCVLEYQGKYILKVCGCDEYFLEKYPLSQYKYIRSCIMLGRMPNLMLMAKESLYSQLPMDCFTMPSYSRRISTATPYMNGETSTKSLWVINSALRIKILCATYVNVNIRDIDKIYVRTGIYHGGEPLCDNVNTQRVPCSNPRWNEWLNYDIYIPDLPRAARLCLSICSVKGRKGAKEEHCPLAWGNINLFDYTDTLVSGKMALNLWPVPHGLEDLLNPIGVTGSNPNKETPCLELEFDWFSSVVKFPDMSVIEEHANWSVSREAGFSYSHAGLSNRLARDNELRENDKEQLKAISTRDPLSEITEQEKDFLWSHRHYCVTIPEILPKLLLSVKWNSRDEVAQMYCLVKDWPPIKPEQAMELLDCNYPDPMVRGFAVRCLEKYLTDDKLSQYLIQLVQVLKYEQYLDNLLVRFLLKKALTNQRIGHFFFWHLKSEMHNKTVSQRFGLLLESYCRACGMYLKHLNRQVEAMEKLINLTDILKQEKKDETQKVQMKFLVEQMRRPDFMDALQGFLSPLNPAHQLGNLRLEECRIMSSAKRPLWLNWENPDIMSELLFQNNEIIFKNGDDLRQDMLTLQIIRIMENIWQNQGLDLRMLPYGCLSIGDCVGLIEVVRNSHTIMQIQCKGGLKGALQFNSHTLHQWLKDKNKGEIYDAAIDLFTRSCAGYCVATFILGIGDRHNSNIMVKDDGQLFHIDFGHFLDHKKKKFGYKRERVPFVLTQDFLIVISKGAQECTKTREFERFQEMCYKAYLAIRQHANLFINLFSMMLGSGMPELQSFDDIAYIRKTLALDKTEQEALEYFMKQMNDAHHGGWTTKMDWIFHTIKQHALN
# Description: Inhibition of human PI3Kalpha (108 to 1068 residues) expressed in mammalian expression system by KINOMEscan assay
# [6] = target: Phosphatidylinositol 4,5-bisphosphate 3-kinase catalytic subunit beta isoform (Homo sapiens, UniProt P42338)
# Sequence of Phosphatidylinositol 4,5-bisphosphate 3-kinase catalytic subunit beta isoform (P42338 whole entry, canonical isoform): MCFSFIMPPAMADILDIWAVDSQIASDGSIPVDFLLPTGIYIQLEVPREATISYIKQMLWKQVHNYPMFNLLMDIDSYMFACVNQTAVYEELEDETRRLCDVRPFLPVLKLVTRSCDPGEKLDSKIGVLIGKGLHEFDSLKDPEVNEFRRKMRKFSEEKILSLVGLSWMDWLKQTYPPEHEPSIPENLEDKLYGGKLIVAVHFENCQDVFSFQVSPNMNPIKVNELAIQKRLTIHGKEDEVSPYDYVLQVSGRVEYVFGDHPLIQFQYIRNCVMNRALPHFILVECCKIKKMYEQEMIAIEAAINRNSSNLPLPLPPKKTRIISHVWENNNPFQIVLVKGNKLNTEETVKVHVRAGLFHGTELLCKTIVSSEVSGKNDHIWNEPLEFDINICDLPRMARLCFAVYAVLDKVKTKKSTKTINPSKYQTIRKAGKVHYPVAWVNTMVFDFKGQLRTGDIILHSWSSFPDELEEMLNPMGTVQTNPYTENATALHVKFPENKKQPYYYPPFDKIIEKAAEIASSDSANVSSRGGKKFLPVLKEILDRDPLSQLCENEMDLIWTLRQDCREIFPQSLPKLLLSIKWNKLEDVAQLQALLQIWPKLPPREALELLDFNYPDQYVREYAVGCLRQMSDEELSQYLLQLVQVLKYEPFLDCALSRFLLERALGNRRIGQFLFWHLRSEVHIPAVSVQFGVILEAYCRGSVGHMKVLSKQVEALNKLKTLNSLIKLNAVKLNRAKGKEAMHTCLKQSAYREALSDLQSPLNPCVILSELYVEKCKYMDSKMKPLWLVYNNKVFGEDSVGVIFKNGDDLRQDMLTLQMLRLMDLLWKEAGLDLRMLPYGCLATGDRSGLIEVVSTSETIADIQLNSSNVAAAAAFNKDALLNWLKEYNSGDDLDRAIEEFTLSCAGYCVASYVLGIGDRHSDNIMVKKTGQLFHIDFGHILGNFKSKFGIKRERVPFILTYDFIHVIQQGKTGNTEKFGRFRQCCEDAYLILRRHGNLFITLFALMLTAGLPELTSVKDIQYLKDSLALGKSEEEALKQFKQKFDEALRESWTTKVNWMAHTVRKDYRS
# Description: Inhibition of human PI3Kbeta (118 to 1070 residues) expressed in mammalian expression system by KINOMEscan assay
# [7] = target: T3, Phosphatidylinositol 4,5-bisphosphate 3-kinase catalytic subunit delta isoform (Homo sapiens, UniProt O00329)
# T3 sequence (O00329 whole entry): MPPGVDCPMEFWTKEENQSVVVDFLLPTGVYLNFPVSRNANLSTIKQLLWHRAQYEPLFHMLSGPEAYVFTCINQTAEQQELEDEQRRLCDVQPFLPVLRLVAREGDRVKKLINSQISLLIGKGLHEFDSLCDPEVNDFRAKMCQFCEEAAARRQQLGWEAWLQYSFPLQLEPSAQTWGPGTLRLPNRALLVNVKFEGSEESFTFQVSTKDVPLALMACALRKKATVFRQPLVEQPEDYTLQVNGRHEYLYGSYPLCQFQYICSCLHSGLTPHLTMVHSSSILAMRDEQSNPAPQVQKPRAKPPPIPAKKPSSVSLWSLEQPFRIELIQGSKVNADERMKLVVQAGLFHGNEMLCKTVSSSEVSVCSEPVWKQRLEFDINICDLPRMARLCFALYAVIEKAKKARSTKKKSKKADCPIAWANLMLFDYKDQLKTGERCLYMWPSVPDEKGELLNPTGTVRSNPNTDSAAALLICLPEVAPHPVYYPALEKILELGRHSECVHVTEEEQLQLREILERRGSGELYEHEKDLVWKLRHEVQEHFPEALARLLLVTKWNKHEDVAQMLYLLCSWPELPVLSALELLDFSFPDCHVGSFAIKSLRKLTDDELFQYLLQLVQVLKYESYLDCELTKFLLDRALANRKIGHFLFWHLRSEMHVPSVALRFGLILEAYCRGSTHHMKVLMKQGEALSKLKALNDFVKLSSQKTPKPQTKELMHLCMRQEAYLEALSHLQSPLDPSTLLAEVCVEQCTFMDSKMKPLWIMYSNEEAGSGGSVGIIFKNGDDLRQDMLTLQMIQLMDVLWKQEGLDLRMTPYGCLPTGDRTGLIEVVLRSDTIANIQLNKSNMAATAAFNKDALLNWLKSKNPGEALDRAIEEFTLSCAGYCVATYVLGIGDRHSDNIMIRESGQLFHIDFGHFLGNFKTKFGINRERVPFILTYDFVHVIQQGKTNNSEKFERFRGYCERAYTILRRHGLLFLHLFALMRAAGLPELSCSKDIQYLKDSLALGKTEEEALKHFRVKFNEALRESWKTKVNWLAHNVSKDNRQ
# Description: Inhibition of human PI3Kdelta (108 to 1044 residues) expressed in mammalian expression system by KINOMEscan assay
# [8] = target: Phosphatidylinositol 4,5-bisphosphate 3-kinase catalytic subunit gamma isoform (Homo sapiens, UniProt P48736)
# Sequence of Phosphatidylinositol 4,5-bisphosphate 3-kinase catalytic subunit gamma isoform (P48736 whole entry, canonical isoform): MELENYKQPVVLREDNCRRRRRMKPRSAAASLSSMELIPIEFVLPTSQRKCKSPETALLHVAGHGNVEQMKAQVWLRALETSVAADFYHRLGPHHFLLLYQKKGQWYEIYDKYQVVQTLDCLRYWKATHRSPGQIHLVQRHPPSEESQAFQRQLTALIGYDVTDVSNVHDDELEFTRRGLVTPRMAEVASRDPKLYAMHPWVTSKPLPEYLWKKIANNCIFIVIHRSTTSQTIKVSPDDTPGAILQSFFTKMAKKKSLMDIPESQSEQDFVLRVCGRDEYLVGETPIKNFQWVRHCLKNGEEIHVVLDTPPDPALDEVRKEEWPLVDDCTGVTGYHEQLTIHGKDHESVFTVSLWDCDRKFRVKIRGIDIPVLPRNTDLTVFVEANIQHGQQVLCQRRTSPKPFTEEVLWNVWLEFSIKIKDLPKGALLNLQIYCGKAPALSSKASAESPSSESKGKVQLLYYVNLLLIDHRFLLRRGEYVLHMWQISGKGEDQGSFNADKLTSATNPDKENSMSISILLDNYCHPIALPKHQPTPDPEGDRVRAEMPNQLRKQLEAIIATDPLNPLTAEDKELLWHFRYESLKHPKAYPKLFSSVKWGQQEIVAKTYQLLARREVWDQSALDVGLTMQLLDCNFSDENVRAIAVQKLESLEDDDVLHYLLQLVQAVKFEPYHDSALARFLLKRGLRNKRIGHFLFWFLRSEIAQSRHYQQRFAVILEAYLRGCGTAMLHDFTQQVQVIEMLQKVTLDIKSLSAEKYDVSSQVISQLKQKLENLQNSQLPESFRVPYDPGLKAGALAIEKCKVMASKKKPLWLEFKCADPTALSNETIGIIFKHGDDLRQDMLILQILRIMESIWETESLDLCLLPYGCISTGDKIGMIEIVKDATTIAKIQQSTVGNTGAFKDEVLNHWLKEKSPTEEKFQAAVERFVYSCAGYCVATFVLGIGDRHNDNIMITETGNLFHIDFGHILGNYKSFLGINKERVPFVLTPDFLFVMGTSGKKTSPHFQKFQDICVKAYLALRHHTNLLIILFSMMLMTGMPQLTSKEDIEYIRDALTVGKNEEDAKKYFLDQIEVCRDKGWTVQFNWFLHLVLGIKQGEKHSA
# Description: Inhibition of human PI3Kgamma (144 to 1102 residues) expressed in mammalian expression system by KINOMEscan assay
# [9] = target: Phosphatidylinositol 4-kinase beta (Homo sapiens, UniProt Q9UBF8)
# Sequence of Phosphatidylinositol 4-kinase beta (Q9UBF8 whole entry, the tested form may be a part): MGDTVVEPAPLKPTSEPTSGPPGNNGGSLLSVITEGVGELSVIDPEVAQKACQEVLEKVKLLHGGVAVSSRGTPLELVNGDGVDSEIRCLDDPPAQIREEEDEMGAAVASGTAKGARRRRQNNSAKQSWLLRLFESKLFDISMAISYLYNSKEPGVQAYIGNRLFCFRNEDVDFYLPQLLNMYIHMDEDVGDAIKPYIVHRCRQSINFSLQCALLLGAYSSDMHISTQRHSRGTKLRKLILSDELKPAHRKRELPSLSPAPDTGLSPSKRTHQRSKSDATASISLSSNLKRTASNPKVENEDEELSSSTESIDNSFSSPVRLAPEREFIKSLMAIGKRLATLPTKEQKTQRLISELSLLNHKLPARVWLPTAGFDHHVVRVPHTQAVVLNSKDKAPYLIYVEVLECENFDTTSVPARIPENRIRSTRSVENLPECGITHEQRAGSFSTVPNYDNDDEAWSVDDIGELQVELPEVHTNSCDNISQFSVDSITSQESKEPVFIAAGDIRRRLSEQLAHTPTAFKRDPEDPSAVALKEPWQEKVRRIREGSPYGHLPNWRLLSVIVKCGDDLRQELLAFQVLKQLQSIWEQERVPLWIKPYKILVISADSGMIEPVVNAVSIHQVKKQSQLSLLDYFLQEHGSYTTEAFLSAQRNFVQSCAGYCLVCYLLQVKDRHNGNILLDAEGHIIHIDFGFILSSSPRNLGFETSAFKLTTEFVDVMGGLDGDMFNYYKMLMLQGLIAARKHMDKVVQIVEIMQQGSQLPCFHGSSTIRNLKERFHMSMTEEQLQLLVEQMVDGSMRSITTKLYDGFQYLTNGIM
# Description: Inhibition of human PI4Kbeta (1 to 828 residues) expressed in mammalian expression system by KINOMEscan assay
# [10] = target: Phosphatidylinositol 3-kinase catalytic subunit type 3 (Homo sapiens, UniProt Q8NEB9); assay: Inhibition of human VPS34 (282 to 879 residues) expressed in mammalian expression system by KINOMEscan assay
# Sequence of Phosphatidylinositol 3-kinase catalytic subunit type 3 (Q8NEB9 whole entry, the tested form may be a part): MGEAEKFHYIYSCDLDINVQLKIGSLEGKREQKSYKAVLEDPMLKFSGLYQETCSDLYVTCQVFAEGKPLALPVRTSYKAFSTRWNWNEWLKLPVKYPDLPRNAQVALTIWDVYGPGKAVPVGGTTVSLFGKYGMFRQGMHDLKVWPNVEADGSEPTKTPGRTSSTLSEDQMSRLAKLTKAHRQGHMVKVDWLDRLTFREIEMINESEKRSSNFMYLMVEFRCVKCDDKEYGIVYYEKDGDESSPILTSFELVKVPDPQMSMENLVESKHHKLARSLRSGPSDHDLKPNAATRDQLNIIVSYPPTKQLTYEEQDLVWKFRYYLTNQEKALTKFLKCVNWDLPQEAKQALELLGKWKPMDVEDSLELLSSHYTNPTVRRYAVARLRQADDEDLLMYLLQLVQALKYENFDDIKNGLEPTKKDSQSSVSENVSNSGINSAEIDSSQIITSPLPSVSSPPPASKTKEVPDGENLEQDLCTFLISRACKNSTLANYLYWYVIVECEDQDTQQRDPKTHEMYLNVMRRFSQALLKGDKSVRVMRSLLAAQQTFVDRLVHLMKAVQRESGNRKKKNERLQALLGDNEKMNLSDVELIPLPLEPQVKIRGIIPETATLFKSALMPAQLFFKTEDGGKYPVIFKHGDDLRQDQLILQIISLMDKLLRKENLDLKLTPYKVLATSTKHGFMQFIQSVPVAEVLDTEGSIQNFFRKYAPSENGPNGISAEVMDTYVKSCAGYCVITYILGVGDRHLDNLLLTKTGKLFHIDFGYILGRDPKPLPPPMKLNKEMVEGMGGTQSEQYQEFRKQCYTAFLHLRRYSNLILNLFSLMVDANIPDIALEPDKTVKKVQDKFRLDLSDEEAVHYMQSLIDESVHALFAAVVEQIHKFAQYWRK
# [11] = target: Voltage-gated inwardly rectifying potassium channel KCNH2 (Homo sapiens, UniProt Q12809); assay: Binding affinity to human ERG expressed in CHO cell membranes at 10 uM by radioligand displacement assay
# [12] = system: A 172; assay: Growth inhibition of human A172 cells after 72 hrs by ATPlite based assay; type: functional; details: A 172, 72 h, pooled result: one value given for 8 cell lines, strains, targets or settings
# [13] = Metabolic stability in mouse liver microsomes assessed as compound remaining after 30 mins; type: ADME, microsome; details: read-out: Stability
# [14] = Metabolic stability in rat liver microsomes assessed as compound remaining after 30 mins; type: ADME, microsome; details: read-out: Stability
# [15] = Clearance in rat hepatocytes assessed per million cells; type: ADME, cell-based, Hepatocyte; details: read-out: CLH
# [16] = Clearance in mouse hepatocytes assessed per million cells; type: ADME, cell-based, Hepatocyte; details: read-out: CLH
# [17] = Apparent permeability of the compound by PAMPA; type: ADME
# [18] = Thermodynamic solubility of the compound at pH 1.2; type: physicochemical; details: buffer, read-out: Therm_solubility
# [19] = Thermodynamic solubility of the compound at pH 4.5; type: physicochemical; details: buffer, read-out: Therm_solubility
# [20] = Thermodynamic solubility of the compound at pH 6.8; type: physicochemical; details: buffer, read-out: Therm_solubility
# [21] = Thermodynamic solubility of the compound in FaSSIF; type: physicochemical; details: read-out: Therm_solubility
# [22] = Thermodynamic solubility of the compound in FeSSIF; type: physicochemical; details: read-out: Therm_solubility
# [23] = Lipophilicity, log D of the compound at pH 7.4; type: physicochemical; details: buffer
# [24] = Cmax in Sprague-Dawley rat plasma at 10 mg/kg, po administered as single dose after 30 mins; type: ADME, organism-based; design: dose 10 mg/kg, route oral
# [25] = Cmax in Sprague-Dawley rat brain at 10 mg/kg, po administered as single dose after 30 mins; type: ADME, organism-based; design: dose 10 mg/kg, route oral
# [26] = AUC in Sprague-Dawley rat plasma at 10 mg/kg, po administered as single dose after 8 hrs; type: ADME, organism-based; design: dose 10 mg/kg, time < 8 hr, route oral
# [27] = AUC in Sprague-Dawley rat brain at 10 mg/kg, po administered as single dose after 8 hrs; type: ADME, organism-based; design: dose 10 mg/kg, time < 8 hr, route oral; details: in vivo
# [28] = Drug uptake in Sprague-Dawley rat brain at 10 mg/kg, po administered as single dose measured at >8 hrs; type: ADME, organism-based; details: read-out: Drug uptake
# [29] = Cmax in C57BL/6JRj mouse brain at 50 mg/kg, po administered as single dose; type: ADME, organism-based; design: dose 50 mg/kg, route oral
# [30] = Unbound fraction in rat brain; type: ADME, tissue-based
# [31] = Toxicity in mouse; type: organism-based; details: in vivo
# [32] = system: Mus musculus; assay: Toxicity in BALB/C nude mouse xenografted with human OVCAR3 cells assessed as body weight loss at 50 mg/kg, po administered daily for 28 days relative to control; type: organism-based; details: in vivo, 672 h
# [33] = system: OVCAR-3; assay: Antitumor activity against human OVCAR3 cells xenografted in BALB/C nude mouse assessed as tumor growth inhibition at 50 mg/kg, po administered daily for 28 days relative to control; type: functional; details: OVCAR-3, po, 672 h, read-out: TGI
# [34] = system: Mus musculus; assay: Antiepileptic activity in Tsc1flox/flox/GFAP-Cre conditional knocked out mouse model assessed as reduction in seizures at 100 mg/kg, po qd treated from days 21 to 53 postnatal by electroencephalography; type: functional, organism-based
# [35] = target: COX1 (Prostaglandin G/H synthase 1) (Homo sapiens, UniProt P23219); assay: Inhibition of recombinant human COX1 at 10 uM using arachidonic acid/ADHP as substrate by fluorometric method relative to control; details: recombinant human COX1, probe arachidonic acid/ADHP
# [36] = target: PDE4D2 (3',5'-cyclic-AMP phosphodiesterase 4D) (Homo sapiens, UniProt Q08499); assay: Inhibition of recombinant human PDE4D2 at 10 uM using [3H]cAMP/cAMP by scintillation counting method relative to control; details: recombinant human PDE4D2, probe [3H]cAMP/cAMP
# [37] = Half life in rat hepatocytes; type: ADME, cell-based, Hepatocyte
# [38] = Half life in mouse hepatocytes; type: ADME, cell-based, Hepatocyte
# [39] = Ratio of drug level in Sprague-Dawley rat brain to plasma at 10 mg/kg, po administered as single dose; type: ADME, organism-based; details: read-out: BPR
# [40] = Ratio of drug level in C57BL/6JRj mouse brain to plasma at 50 mg/kg, po administered as single dose; type: ADME, organism-based; details: read-out: BPR
# [41] = Toxicity in rat after 14 days; type: organism-based; details: in vivo
# [42] = system: Rattus norvegicus; assay: Increase in insulin levels in Sprague-Dawley rat plasma at 10 mg/kg, po administered as single dose; type: functional, organism-based
# [43] = system: Mus musculus; assay: Increase in insulin levels in C57BL/6JRj mouse plasma at 50 mg/kg, po administered as single dose; type: functional, organism-based
# [44] = system: Rattus norvegicus; assay: Increase in glucose levels in Sprague-Dawley rat plasma at 10 mg/kg, po administered as single dose; type: functional, organism-based
# [45] = system: Mus musculus; assay: Increase in glucose levels in C57BL/6JRj mouse plasma at 50 mg/kg, po administered as single dose; type: functional, organism-based
# [46] = target: T2, Phosphatidylinositol 4,5-bisphosphate 3-kinase catalytic subunit alpha isoform; remark: listed apart in the source
# [47] = Drug uptake in Sprague-Dawley rat brain at 10 mg/kg, po administered as single dose after 4 hrs; type: ADME, organism-based; details: read-out: Drug uptake
structure (smiles),measurement,setting,value
Nc1cc(C(F)F)c(-c2nc(N3C4CCC3COC4)nc(N3C4CCC3COC4)n2)cn1,IC50,[1],0.19 µM
same,IC50,[2],0.0852 µM
same,Ki,[3],0.0108 µM
same,Kd,[4],0.00027 µM
same,Kd,[5],1 µM
same,Kd,[6],22 µM
same,Kd,[7],23 µM
same,Kd,[8],18 µM
same,Kd,[9],> 30 µM
same,Kd,[10],2.75 µM
same,inhibition (INH),[11],Not Active
same,IC50,[12],0.92 µM
same,remaining at 0.5 h,[13],70.2%
same,remaining at 0.5 h,[14],108%
same,hepatocyte CLint,[15],1.85 µL/min/1e6 cells
same,hepatocyte CLint,[16],2.67 µL/min/1e6 cells
same,Papp,[17],5.22 ×10⁻⁶ cm/s
same,solubility thermodynamic,[18],20000 µM
same,solubility thermodynamic,[19],78.2 µM
same,solubility thermodynamic,[20],33.7 µM
same,solubility thermodynamic,[21],66 µM
same,solubility thermodynamic,[22],335 µM
same,logD,[23],3.47
same,Cmax,[24],1360 ng/mL
same,Cmax,[25],1310 ng/g
same,AUC at 8 h,[26],409 µg·h/mL
same,AUC,[27],404 µg·h/g
same,concentration at 8 h,[28],900 ng/g
same,Cmax,[29],7710 ng/g
same,fraction unbound,[30],0.03
same,MTD,[31],150 mg/kg
same,Activity,[32],Non-Toxic
same,inhibition in vivo at 50 mg/kg,[33],> 50%
same,Activity,[34],Active
same,inhibition at 10 µM,[35],< 50%
same,inhibition at 10 µM,[36],< 50%
same,half-life,[37],7.81 h
same,half-life,[38],5.41 h
same,Kp,[39],1
same,Kp,[40],1.6
same,MTD at 336 h,[41],30 mg/kg
same,Activity,[42],inactive
same,Activity,[43],inactive
same,Activity,[44],inactive
same,Activity,[45],Active
same,Ki,[46],4.2 µM
CCC(CC)n1cnc2c(-c3cnc(N)cn3)nc(N3CC4CCC(C3)O4)nc21,Kd,[4],0.00085 µM
same,Kd,[5],2.7 µM
same,Kd,[6],20 µM
same,Kd,[7],> 30 µM
same,Kd,[8],22 µM
same,Kd,[9],> 30 µM
same,Kd,[10],8.3 µM
same,concentration at 4 h,[47],170 ng/g
same,Kp,[39],0.178
same,Activity,[42],inactive
same,Activity,[43],inactive
